Like-named read-outs stand apart in the source and are kept apart here.

Assay [1] relates to HIV (H9/HTLV-IIIB) in C8166 cells. The experiment in a line: plaque assay: inhibition of syncytia formation in HIV-infected C8166 cells. The format is cell-based. The conditions noted are these: Human immunodeficiency virus 1, IIIB, 72 h, 50% inhibition of syncytia formation. An excerpt: Typical of such procedures are those described by S. Harada and N. Yamamoto, Jpn. J. Cancer Res. (Gann), 76, 432 (1985), and S. Harada et al., Science, 229, 563 (1985). An assay based on the latter procedures is described in the examples hereinafter.
The following protocol, used for screening antiviral effects of the compounds of formula 1, is adapted from a plaque assay utilizing HTLV-I transformed cells, previously reported by Harada et al., supra. HTLV-I transformed cells are used because of the rapidity with which HIV will replicate in the cells.
1. The test compound is dissolved in dimethylsulfoxide to a concentration of 5 mg/mL. The resultant solution can be stored at 4° until use.
2. The resultant solution is diluted in RPMI 1640 (Gibco Laboratories, St. Lawrence, Mass., USA) to four times (4×) the final concentration which is to be tested. Once diluted in RPMI 1640, the solution is used in the cell culture assay within 4 h.
3. The 4× solution (50 μL) is added to triplicate wells of a 96 well flat bottomed microtiter plate. RPMI (50 μL) also is added to control wells.
4. C8166 cells (5×10^4) in 50 μL of HEPES-buffered RPMI 1640 (pH=7.2), 10% heat inactivated fetal calf serum (FCS), […] gentamicin (complete media) are added to all wells.
5. Fifty times TCID50 of H9/HTLV-IIIB stock (stored in liquid nitrogen as cell culture supernatant in 50% FCS) in 100 μL of complete media is added to all wells. Infectious titer of virus stocks are as previously determined by end point dilution on C8166 cells. Titer of stocks are stable for 6-12 months when stored at -193°.
6. Microtiter plates are then placed on level shelves of a 37°, 5% CO2 humidified incubator for 72 h.
7. Plates are then removed and centers of syncytia are counted in each well by low power phase contrast light microscopy. […] Control wells should have between 25 and 75 centers of syncytia per well.
8. Percent inhibition of syncytia formation is calculated by the formula: [formula]
The concentration of the test compound which causes a 50% inhibition of syncytia formation, i.e. the EC50, is determined by using the technique of serial dilution of the working solution at step 3 and by using non-linear regression analysis (SAS® program) to graphically plot the observed percent inhibition of syncytia formation against the various concentrations of the test compound.

The target in assay [2] is T1, HIV protease (Human immunodeficiency virus type 1 group M subtype B, UniProt P04585).
T1 construct: HIV protease was expressed in E. coli; made in house; host or cells: E. coli (plasmid pBRT1 prt+)
The experiment in a line: Recombinant HIV Protease HPLC Assay. Format: biochemical. An excerpt:
The procedure is based on the capacity of the test compound to inhibit enzymatic cleavage by HIV protease of a decapeptide (the substrate) having an amino acid sequence which includes a known HIV protease cleavage site of a HIV polyprotein; see H. G. Krausslich et al., Proc. Natl. Acad. Sci. USA, 86, 807 (1989). Details of this assay together with the results obtained for exemplified compounds of formula 1 are described in the examples hereinafter.
Recombinant HIV Protease HPLC Assay:
Enzyme: HIV protease was expressed in E. coli {construct pBRT1 prt^+, see W. G. Farmerie et al., Science, 236, 305 (1987)}, according to the following protocol:
E. coli cells containing the pBRT1 prt^+ plasmid were used to inoculate a seed culture media composed of Luria-Bertani Broth containing 100 μg/mL of ampicillin. Flasks were incubated at 37° under agitation for 17 h. Production flasks containing sterile M9 broth, supplemented with 100 μg/mL of ampicillin, were inoculated at a level of 1% (v/v) using the seed culture described above. Total volume in each production flask was 500 mL in a 2 L Erlenmeyer flask. Flasks were incubated at 37° under agitation until a cell concentration corresponding to an optical density ([…]) of 0.6 was reached (no dilution). This time span was routinely 3-4 h. Flasks were then supplemented with 5 mM isopropylthiogalactoside (IPTG, Research Organics, Cleveland, Ohio, USA) and incubation was continued until the cell concentration reached an optical density of 0.2 at 16-fold dilution. Flasks were then supplemented with 1 mM phenylmethylsulfonyl fluoride (PMSF) and rapidly chilled to 4°. The bacterial cells were recovered by centrifugation at 4°. The wet pellet was stored at -70°.
All steps below were performed at 4° unless otherwise indicated. Thawed cells were mixed with buffer A {50 mM tris(hydroxymethyl)[…] HCl (Tris-HCl, pH 7.4); 0.6 mM ethylenediaminetetraacetic acid (EDTA); 0.375M NaCl, 0.2% Nonidet P-40® (BDH Chemicals Ltd., Poole, UK); 1 mM PMSF}, at a ratio of one part cells to nine parts buffer A. Diatomaceous earth (Celite 545®, John Manville, Lompoc, Calif. USA) was added at a ratio of two parts to one part of wet cell weight. The resulting slurry was homogenized at high speed (ca. 20,000 rpm) on a Waring® industrial blender for 8×15 sec. pulses. Cell debris/Celite® was collected by centrifugation and the resulting pellet was extracted with 4.5 parts of buffer A to one part wet solids using the homogenization procedure described above. Supernatants from both homogenization steps were combined and soluble protein was precipitated by the addition of solid (NH4)2 SO4 to yield a final concentration of 75% saturation. This mixture was agitated for 60 min and the precipitate was recovered by centrifugation. The resulting pellet was suspended in buffer B {50 mM Tris-HCl, pH 8; 30 mM NaCl; 1 mM DL-dithiothreitol (DTT); 1 mM EDTA; 1 mM PMSF; 10% glycerol}, and dialyzed for 18 h against the same buffer.
An aliquot of the dialyzed extract containing 150 mg of the protein was loaded onto a Sephadex A25® anion exchange column (Pharmacia, Uppsala, Sweden) with bed dimensions of 70 cm length and 2.5 cm diameter. The sample was eluted isocratically with buffer B at a linear flow rate of 10 cm/h. Fractions containing HIV protease activity (see below for assay description) were combined, and soluble protein was precipitated by the addition of saturated aqueous (NH4)2 SO4 to yield a total (NH4)2 SO4 concentration of 85% saturation. Precipitated protein was removed by centrifugation and the resulting pellet was dissolved in buffer C {50 mM 2-(4-morpholino)ethanesulfonic acid (MES), pH 5.5; 150 mM NaCl; 1 mM DTT; 1 mM EDTA; 10% glycerol}. This preparation was dialyzed for 18 h against buffer C, and then frozen at -70°. All crude extracts were purified by chromatography in aliquots containing 150 mg of protein in the same manner as described above. […]

Turning to `CC(C)[C@H](NC(=O)OCc1ccccc1)C(=O)N[C@@H](Cc1ccc(F)cc1)[C@H](O)CN1CC[C@@H](Sc2ccccc2)C[C@H]1C(=O)NC(C)(C)C` [Table IV, entry 26, N-tert-butyl-1-{3(S)-{{N-(benzyloxycarbonyl)valyl}amino}-2(R)-hydroxy-4-(4-fluorophenyl)butyl}-4(R)-(phenylthio)piperidine-2(S)-carboxamide], the EC50 in assay [1] (Table IV) came out at 24 nM. The IC50 in assay [2] (Table IV, 37°, 30 min, pH 5.5) is 3.5 nM.
In the case of `CC[C@H](C)[C@H](NC(=O)OCc1ccccn1)C(=O)N[C@@H](Cc1ccccc1)[C@H](O)CN1CC[C@@H](c2ccccc2)C[C@H]1C(=O)NC(C)(C)C` [Table IV, entry 27, N-tert-butyl-1-{2(R)-hydroxy-4-phenyl-3(S)-{{N-{(2-pyridinylmethoxy)carbonyl}isoleucyl}amino}butyl}-4(R)-phenylpiperidine-2(S)-carboxamide], the half-maximal effective concentration (EC50) in assay [1] (Table IV) came to 500 nM. Further, in assay [2] (Table IV, 37°, 30 min, pH 5.5), the IC50 is 4.9 nM.
For `CC(C)(C)NC(=O)[C@@H]1C[C@H](Sc2ccccn2)CCN1C[C@@H](O)[C@H](Cc1ccccc1)NC(=O)OCc1ccccc1` [Table IV, entry 28], in that order: 500 nM and 16 nM.
The molecule `CC(C)(C)NC(=O)[C@@H]1C[C@H](Sc2ccncc2)CCN1C[C@@H](O)[C@H](Cc1ccccc1)NC(=O)OCc1ccccc1` [Table IV, entry 29] came in with an EC50 in assay [1] (Table IV) of 140 nM. For the same molecule, the IC50 in assay [2] (Table IV, 37°, 30 min, pH 5.5) was 8 nM.
In the case of `CC(C)(C)NC(=O)[C@@H]1C[C@H](Sc2ncccn2)CCN1C[C@@H](O)[C@H](Cc1ccccc1)NC(=O)OCc1ccccc1` [Table IV, entry 30, N-tert-butyl-1-{3(S)-(benzyloxycarbonylamino)-2(R)-hydroxy-4-phenylbutyl}-4(R)-(2-pyrimidinylthio)piperidine-2(S)-carboxamide], it took 822 nM to reach a half-maximal effect in assay [1] (Table IV) (EC50). Also, the IC50 in assay [2] (Table IV, 37°, 30 min, pH 5.5) came to 19 nM.
`Cc1cc(C)nc(S[C@@H]2CCN(C[C@@H](O)[C@H](Cc3ccccc3)NC(=O)OCc3ccccc3)[C@H](C(=O)NC(C)(C)C)C2)n1` [Table IV, entry 31, N-tert-butyl-1-{3(S)-(benzyloxycarbonylamino)-2(R)-hydroxy-4-phenylbutyl}-4(R)-(4,6-dimethyl-2-pyrimidinylthio)-piperidine-2(S)-carboxamide] yielded an EC50 in assay [1] (Table IV) of 290 nM. Further, in assay [2], the IC50 was 12 nM.
In the case of `CC(C)[C@H](NC(=O)OCc1ccccc1)C(=O)N[C@@H](Cc1ccccc1)[C@H](O)CN1CC[C@@H](Sc2ncccn2)C[C@H]1C(=O)NC(C)(C)C` [Table IV, entry 35, N-tert-butyl-1-{3(S)-{{N-(benzyloxycarbonyl)valyl}amino}-2(R)-hydroxy-4-phenylbutyl}-4(R)-(2-pyrimidinylthio)piperidine-2(S)-carboxamide], in assay [1] (Table IV), the EC50 was 15 nM. For the same molecule, the IC50 in assay [2] (Table IV, 37°, 30 min, pH 5.5) came to 3.7 nM.
For `Cc1cc(C)nc(S[C@@H]2CCN(C[C@@H](O)[C@H](Cc3ccccc3)NC(=O)[C@@H](NC(=O)OCc3ccccc3)C(C)C)[C@H](C(=O)NC(C)(C)C)C2)n1` [Table IV, entry 36, N-tert-butyl-1-{3(S)-{{N-(benzyloxycarbonyl)valy}amino}-2(R)-hydroxy-4-phenylbutyl}-4(R)-(4,6-dimethyl-2-pyrimidinylthio)piperidine-2(S)-carboxamide], in that order: 9 nM and 3 nM.
For `CC(C)[C@H](NC(=O)OCc1ccccc1)C(=O)N[C@@H](Cc1ccccc1)[C@H](O)CN1CC[C@@H](SCc2ccccc2)C[C@H]1C(=O)NC(C)(C)C` [Table IV, entry 37, N-tert-butyl-1-{3(S)-{{N-(benzyloxycarbonyl)valyl}amino}-2(R)-hydroxy-4-phenylbutyl}-4(R)-(benzylthio)piperidine-2(S)-carboxamide], in that order: 7 nM and 2.3 nM.
In the same order, the values of `CC(C)[C@H](NC(=O)N(C)Cc1ccccn1)C(=O)N[C@@H](Cc1ccccc1)[C@H](O)CN1CC[C@@H](Sc2ccccc2)C[C@H]1C(=O)NC(C)(C)C` [Table IV, entry 38, N-tert-butyl-1-{2(R)-hydroxy-3(S)-{N-{{N-methyl-N-(2-pyridinylmethyl)amino}carbonyl}valyl}-4-phenylbutyl}-4(R)-(phenylthio)piperidine-2(S)-carboxamide] are 14 nM and 4.3 nM.
Turning to `CC(C)[C@H](NC(=O)c1ccc2ccccc2n1)C(=O)N[C@@H](Cc1ccccc1)[C@H](O)CN1CC[C@@H](Sc2ncccn2)C[C@H]1C(=O)NC(C)(C)C` [Table V, entry 1, N-tert-butyl-1-{2(R)-hydroxy-4-phenyl-3(S)-{{N-(2-quinolylinylcarbonyl)valyl}amino}butyl}-4(R)-(2-pyrimidinylthio)piperidine-2-carboxamide], in assay [1] (Table V), it took 7 nM to reach a half-maximal effect (EC50). In addition, the IC50 in assay [2] (Table V, 37°, 30 min, pH 5.5) is 3.6 nM.
For `CC(C)[C@H](NC(=O)c1ccc2ccccc2n1)C(=O)N[C@@H](Cc1ccccc1)[C@H](O)CN1CC[C@@H](SCc2ccncc2)C[C@H]1C(=O)NC(C)(C)C` [Table V, entry 2(S), N-tert-butyl-1-{2(R)-hydroxy-4-phenyl-3(S)-{{N-(2-quinolylinylcarbonyl)valyl}amino}butyl}-4(R)-{(4-pyridinylmethyl)thio}piperidine-2-carboxamide], in that order: 4 nM and 2.8 nM.
For `CC(C)[C@H](NC(=O)c1ccc2ccccc2n1)C(=O)N[C@@H](Cc1ccccc1)[C@H](O)CN1CC[C@@H](OCc2ccccn2)C[C@H]1C(=O)NC(C)(C)C` [Table V, entry 3, N-tert-butyl-1-{2(R)-hydroxy-4-phenyl-3(S)-{{N-(2-quinolylinylcarbonyl)valyl}amino}butyl}-4(R)-(2-pyridinylmethoxy)piperidine-2-carboxamide], the EC50 in assay [1] (Table V) is 24 nM. Moreover, the half-inhibitory concentration (IC50) in assay [2] (Table V, 37°, 30 min, pH 5.5) was determined as 3.9 nM.

Values taken from patent US5614533A, “Substituted pipecolinic acid derivatives as HIV protease inhibitors” (Bio-Mega/Boehringer Ingelheim Research, Inc., priority 1994, dated 1997).
